Columns and labels:
PGC-1α = PGC-1α protein expression in BV2 microglia cells (Western blot); format: cell-based, murine; conditions: 24 hours
Procedure: Frozen BV2 murine microglia cells were thawed and propagated in complete media (RPMI, 10% heat-inactivated FBS, 1% L-glutamine, 1% Pen-Strep) until the growth rate reached log phase. For protein expression analysis, DMSO (1:1000 final dilution) or TQS-168 in DMSO (1:1000 final dilution) at 20 μM was added to cell cultures. After 24 hours stimulation, supernatant was discarded and cell lysis buffer (Cell Signal) was added to adherent cells to extract protein. Total protein was quantified and normalized across all samples by BCA assays. Two replicates of untreated cultures and three replicates of TQS-168-treated cultures were investigated, with each replicate containing lysates from 5,000,000 BV2 myeloid cells. PGC1α expression was detected by Western Blot using an anti-PGC-1α antibody (SC13067, Santa Cruz Biotechnology, 1:500 dilution). Anti-β-actin antibody (SC8432, Santa Cruz Biotechnology, 1:2000 dilution) was used to quantify beta-actin, a housekeeping gene whose expression level is not know to be affected by TQS-168. […] Total protein was quantified and normalized across all samples by BCA assays. PGC-1α was subsequently detected by Western Blot using an anti-PGC-1α antibody (SC13067, Santa Cruz Biotechnology, 1:500 dilution). β-actin was detected with an anti-β-actin antibody (SC8432, Santa Cruz Biotechnology, 1:2000 dilution). […]

Ppargc1α mRNA = Ppargc1α mRNA expression in BV2 cells (rt-PCR); format: cell-based, murine; conditions: concentrations ranging from 0.7 μM to 20 μM, normalized to beta-actin mRNA
Description: RNA was processed for real-time PCR.

TNFα = TNFα release by LPS-stimulated BV2 cells (ELISA); format: cell-based, murine; conditions: BV-2 cells, 10 μM, ELISA at 24 hours
Procedure: First, 100 μl of supernatant was removed from Cell Plate and transferred to a Dilution Plate, which was then centrifuged at 216×g for 10 minutes to remove particulates. The dilution plate was either assayed immediately or aliquots were taken and stored at stored at ≤−20° C.; repeated freeze-thaw cycles were avoided.
Next, a standard curve was prepared by first pipetting 900 ul of Calibrator Diluent RD5K into the 700 pg/mL tube, followed by 200 μl of the appropriate calibrator diluent in the remaining tubes. The stock solution was used to produce a dilution. The resulting tubes were then thoroughly mixed. The Mouse TNFα Standard (700 pg/mL) served as the high standard, and the Calibrator Diluent RD5T served as the zero standard at 0 pg/ml.
Assay Diluent RD1-63 (50 ul) was then added to the center of each well and mixed before and during its use. Then, 50 ul of either standard, control, or sample was added to the center of each well, and covered with adhesive strip. The plate was then mixed for 1 minute and incubated for 2 hours at room temperature.
Each well was then aspirated and washed by filling each well with Wash Buffer (400 ul) five times. After the last wash, the remaining Wash Buffer was removed by aspirating or decanting. TNFα […] conjugate (100 ul) was then added to each well, covered with adhesive strip, incubated for 2 hours at room temperature, and washed and/or aspirated five times.
Substrate solution (100 ul) was then added to each well, incubated in the dark for 30 minutes at room temperature, followed by addition of 100 μl of Stop Solution and mixed. The optical density of each well was determined within 30 minutes by using a microplate reader set to 450 nm.
Plates were read on a Spectrostar Nano machine with built-in MARS data analysis at […].
For TNFα ELISA, the BV-2 cells were very responsive to low concentrations of LPS. A concentration range of 0.1 ng/ml to 1,000 ng/ml was tested. 0.3 ng/ml LPS produced enough TNFα release (8-10 fold above background) from these cells after 22 hours stimulation without saturating the linear range of the ELISA detection system. If higher LPS concentrations are used for stimulating BV-2 cells, a […] is advised to stay within the linear range of the detection system. The current TNFα protocol uses 10,000 cells per well in 96 well plate. A cell count titration can optimize S/B ratio. Miniaturization from 96 well to 384 well is also feasible with this assay.
The TNFα ELISA assay is described in Example 5. The IL-6 assay is described below.

[1] = test system: 12 human primary cell-based systems; test: Eurofins BioMAP Diversity PLUS panel
Description: TQS-168 was characterized in the Eurofins BioMAP Diversity PLUS panel of 12 human primary cell-based systems (FIG. 12). These systems are designed to model complex human tissue and disease biology of the vasculature, skin (fibrosis), pulmonary and immune systems and provide test agent characterization in an unbiased way across a broad set of systems modeling various human disease states. Quantitative measurements of biomarker activities across this broad panel, along with comparative analysis of the biological activities of known bioactive agents in the BioMAP reference database were used to predict the safety, efficacy and function of TQS-168. A BioMAP profile in the Diversity PLUS Panel was performed for TQS-168 at concentrations of 20 μM, 6.7 μM, 2.2 μM, and 740 nM. The Y-axis represents a log-transformed ratio of the biomarker readouts for the test agent-treated sample (n=1) over vehicle controls (average of ≥6 vehicle controls from the same plate). The grey region around the Y-axis represents the 95% significance envelope that was generated from the upper and lower bound values of historical vehicle controls. Biomarker activities were annotated when two or more consecutive concentrations change in the same direction relative to vehicle controls, were outside of the significance envelope, and have at least one concentration with an effect size >20% (|log10 ratio|>0.1). Biomarker key activities were described as modulated if these activities increase in some systems, but decreased in others.

IL-6 = test: LPS-stimulated IL-6 secretion from human PBMC (ELISA); format: cell-based; conditions: human PBMC from a first donor, 1 ng/ml LPS, 24h
Procedure: Briefly, 20,000 human PBMC were aliquoted into each well. LPS was added at 1 ng/ml and the cells incubated for 24h in the presence of LPS and TQS-168 or one of its metabolites. Readouts were human IL-6 ELISA and human TNFα ELISA. For assay, supernatants were diluted in culture medium. The supernatant dilution for the IL-6 ELISA was 1:8, and 1:2 for the human TNFα ELISA.

[2] = profile at 20 μM, 6.7 μM, 2.2 μM, 740 nM

**Q.** Which results are given for `CC(C)(C)c1ccc(-c2nc3ccccc3[nH]2)cc1` [TQS-168, 2-(4-tert-butylphenyl)-1H-benzimidazole]?
**A.** PGC-1α protein expression (PGC-1α; BV2 cells, concentrations ranging from 0.7 μM to 20 μM): induces; PGC-1α protein expression (PGC-1α; BV2 microglia cells, 20 μM, Western blot): induces; Ppargc1α mRNA expression (Ppargc1α mRNA): induces; suppression of TNFα production (TNFα; 0.3 ng/ml LPS): about 25%; inhibition at 10 µM (TNFα; Mus musculus, 1 ng/ml LPS, read-out: inhibition of TNFα production): ~35%; T-cell proliferation, IgG, TNFα, and IL-8 ([1]; 6.7 μM): inhibit; decrease in sIgG and sTNFα in B and T cells as compared to metformin hydrochloride at 5000 μM ([1]; 6.7 μM): greater decrease; decrease in sIgG, sIL-17A, sIL-17F, sIL-2, sTNFα, sIL-6 from B and T cells ([1]; 20 μM, highest concentration of the profile): greatest decrease; inflammatory markers Eotaxin-3, P-selectin, IL-8, PGE2, IP-10 [1, 2]: decreased; proliferation of endothelial, B cells, T cells, coronary artery SMC & fibroblasts [1, 2]: anti-proliferative; tissue remodeling markers uPAR, MMP1, tPA, alpha-SMA, Collagen III [1, 2]: modulated; LPS-stimulated IL-6 secretion from PBMCs (IL-6): inhibition

From US20240316008A1, “TREATMENT OF SYSTEMIC IMMUNE ACTIVATION SYNDROMES” (TRANQUIS THERAPEUTICS, INC., priority 2020, published 2024)
